Reference: PMC5696490, “Modelling foetal exposure to maternal smoking using hepatoblasts from pluripotent stem cells” (Archives of Toxicology, 2017)

Key:
Caspase 3/7 [1] = experiment: Caspase 3/7 activity (pGlo) in donor one hESC-derived hepatocytes; assay type: cell-based, human; conditions: concentration of peak caspase 3/7 activity, 8 days exposure
Method: (§1) H9 and Man12 human embryonic stem cells (hESCs) identity was confirmed using short tandem repeat typing. hESCs were cultured and differentiated as previously described (Cameron et al. [2015]). Maintenance of hESCs was performed on pre-coated laminin 521 (Biolaminin) in mTeSR1 ([…] Technologies) in a humidified 37 °C, 5% CO2 incubator. For differentiation, hESCs were plated onto a pre-coated blend of laminins 521 and 111 (at a 1:3 ratio). Differentiation was initiated at 40% confluence by replacing serum-free medium with endoderm differentiation medium: RPMI 1640 containing 1× B27 (Life Technologies), 100 ng/mL Activin A (PeproTech), and 50 ng/mL Wnt3a (R&D Systems). The medium was changed every 24 h for 72 h. On day 3, endoderm differentiation medium was replaced with hepatoblast differentiation medium, and this was renewed every second day for a further 5 days. The medium consisted of knockout (KO)-DMEM (Life Technologies), Serum replacement (Life Technologies), 0.5% Glutamax (Life Technologies), 1% non-essential amino acids (Life Technologies), 0.2% β-mercaptoethanol (Life Technologies), and 1% DMSO (Sigma). On day 8, differentiating cells were cultured in the hepatocyte maturation medium HepatoZYME (Life Technologies) containing 1% Glutamax (Life Technologies), supplemented with 10 ng/mL hepatocyte growth factor (PeproTech) and 20 ng/mL oncostatin M (PeproTech). On day 10 maturation medium was replaced with HepatoZYME supplemented with and without smoking derivatives (Sigma-Aldrich) for a further 8 days, with media replaced every 48 h.
(§2) Cell health was assessed measuring ATP production and Caspase 3/7 activity at Day 18 employing pGlo technology (Promega) in accordance with the manufacturer’s instructions. Levels of expression of both markers were expressed as percentage of relative light units (RLUs) per milliliter of medium and normalised to the vehicle control. Levels of significance were measured by Student’s t test. The experiments are representative of five biological replicates.
(§3) Hepatocyte specification and maturation was performed in male and female hESCs lines in the presence or absence to smoking components. Cotinine at a concentration range of 1 to 300 nM, chrysene at a concentration range of 10 nM to 50 μM, fluorene at a concentration range of 10 nM to 100 μM, naphthalene at a concentration range of 10nm to 1 mM and phenanthrene, at a concentration range of 10 nM to 500 μM were used. Following 8 days exposure, cell health was determined by ATP production and caspase activity. Following this cell function was determined measuring CYP P450 3A and 1A2 activity. In order to measure the effectiveness of each component of cigarette smoke to inhibiting activity we used the half maximal inhibitory concentration (IC50).

Caspase 3/7 [2] = experiment: Caspase 3/7 activity (pGlo) in donor two hESC-derived hepatocytes; assay type: cell-based, human; conditions: concentration of peak caspase 3/7 activity, 8 days exposure
Method: as §1, §2, §3

CYP3A = CYP3A activity (pGlo) in donor two hESC-derived hepatocytes; conditions: human two
Method: as §1
CYP3A and CYP1A2 activity was measured in hepatocytes at Day 18 using pGlo technology (Promega) in accordance with the manufacturer’s instructions. CYP activity was expressed as either relative light units (RLUs) per milliliter of medium per milligram of protein (determined by the BCA assay, Pierce), or as a percentage of CYP activity normalised to the vehicle control. Levels of significance were measured by Student’s t test. The experiments are representative of five biological replicates.
as §3

CYP1A2 = biological target: T1, CYP1A2 (Homo sapiens, UniProt P05177); experiment: CYP1A2 activity (pGlo) in donor one hESC-derived hepatocytes; assay type: cell-based; conditions: female hepatocytes, 8 days exposure
T1 sequence (P05177 2-516): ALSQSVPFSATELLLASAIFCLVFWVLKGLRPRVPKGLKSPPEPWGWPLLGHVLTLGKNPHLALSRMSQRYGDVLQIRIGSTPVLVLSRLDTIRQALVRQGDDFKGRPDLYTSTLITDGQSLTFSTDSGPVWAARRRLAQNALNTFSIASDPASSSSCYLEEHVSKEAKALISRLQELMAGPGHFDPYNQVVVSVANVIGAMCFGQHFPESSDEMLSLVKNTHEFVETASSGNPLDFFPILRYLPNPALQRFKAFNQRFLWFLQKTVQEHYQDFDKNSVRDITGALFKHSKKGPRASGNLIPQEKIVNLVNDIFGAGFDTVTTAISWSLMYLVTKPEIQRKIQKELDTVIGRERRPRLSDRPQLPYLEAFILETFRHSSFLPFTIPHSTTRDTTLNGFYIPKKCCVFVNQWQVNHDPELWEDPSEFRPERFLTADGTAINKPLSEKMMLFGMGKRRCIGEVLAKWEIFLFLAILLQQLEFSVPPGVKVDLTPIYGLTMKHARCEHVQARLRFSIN
Source text: The experiments are representative of five biological replicates.

c1ccc2c(c1)Cc1ccccc1-2 [Fluorene]
Caspase 3/7 peak activity Female (Caspase 3/7 [1]): >100 µM | Caspase 3/7 peak activity Male (Caspase 3/7 [2]): 100 µM | IC50 at 8 days (CYP3A): 25 µM

c1ccc2ccccc2c1 [Naphthalene]
Caspase 3/7 peak activity Female (Caspase 3/7 [1]): 50 µM | Caspase 3/7 peak activity Male (Caspase 3/7 [2]): 1000 µM | IC50 CYP1A2 person one (CYP1A2): Induced activity | IC50 CYP1A2 person one (CYP1A2; listed as naphthalene): induced CYP1A2 activity | IC50 at 8 days (CYP3A): 68 µM

CN1C(=O)CC[C@H]1c1cccnc1 [Cotinine]
Caspase 3/7 peak activity Female (Caspase 3/7 [1]): 0.1 µM | Caspase 3/7 peak activity Male (Caspase 3/7 [2]): 0.1 µM | IC50 at 8 days (CYP3A): 0.05 µM

c1ccc2c(c1)ccc1ccccc12 [Phenanthrene]
Caspase 3/7 peak activity Female (Caspase 3/7 [1]): >500 µM | Caspase 3/7 peak activity Male (Caspase 3/7 [2]): 10 µM | IC50 at 8 days (CYP3A): 58 µM

c1ccc2c(c1)ccc1c3ccccc3ccc21 [Chrysene]
Caspase 3/7 peak activity Female (Caspase 3/7 [1]): 25 µM | Caspase 3/7 peak activity Male (Caspase 3/7 [2]): 5 µM | IC50 at 8 days (CYP3A): 10 µM
